According to patent US12180207B2 (ARRAY BIOPHARMA INC., priority 2018, dated 2024):

How the values were obtained:
Type in all cases: biochemical
[1] = target: recombinant human FGFR2 cytoplasmic domain (amino acids 403-822) (Homo sapiens (Human), UniProt P21802); assay: FGFR2 enzyme activity assay (LanthaScreen TR-FRET); details: 15 μM ATP, 20 min incubation at 22° C., average of multiple determinations if made, read-out: FGFR2 Enz FRET IC50
Outline: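 His-tagged FGFR2 cytoplasmic domain ([…]) with 100 nM Alexa Fluor 647-poly-GT peptide and 15 μM ATP in HEPES/MgCl2/Triton buffer, pH 7.5, 2% DMSO, 20 min at 22 °C. EDTA-quenched, Eu-PY20 antibody added, TR-FRET read after 60 min.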

[2] = target: recombinant human FGFR3 (amino acids R397-T806) (Homo sapiens (Human), UniProt P22607); assay: FGFR3 enzyme activity assay (LanthaScreen TR-FRET); details: 25 μM ATP, 10 min incubation at 22° C., average of multiple determinations if made, read-out: FGFR3 Enz FRET IC50
Sequence of recombinant human FGFR3 (amino acids R397-T806) (P22607 397-806): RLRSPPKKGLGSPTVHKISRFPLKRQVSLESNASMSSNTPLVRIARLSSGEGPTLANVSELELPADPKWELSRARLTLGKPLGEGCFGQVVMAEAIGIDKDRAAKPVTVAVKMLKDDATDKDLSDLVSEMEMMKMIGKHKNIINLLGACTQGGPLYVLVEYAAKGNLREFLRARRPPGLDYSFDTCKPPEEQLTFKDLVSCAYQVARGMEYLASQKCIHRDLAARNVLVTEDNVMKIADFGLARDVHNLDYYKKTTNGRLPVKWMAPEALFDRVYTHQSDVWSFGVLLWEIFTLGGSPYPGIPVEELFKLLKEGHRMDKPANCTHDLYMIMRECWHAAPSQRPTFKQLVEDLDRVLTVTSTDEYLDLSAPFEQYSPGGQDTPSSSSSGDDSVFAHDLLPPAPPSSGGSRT
Outline: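 GST-HIS6-tagged human FGFR3 (R397-T806) was reacted with 100 nM Alexa Fluor 647-Poly-GT substrate and 25 μM ATP plus compound in HEPES/MgCl2/Triton buffer, pH 7.5, 2% DMSO, for 10 min at 22 °C.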

[3] = target: recombinant human FGFR1 catalytic domain (amino acids 308-731) (Homo sapiens (Human), UniProt P11362); assay: FGFR1 enzyme activity assay (LanthaScreen TR-FRET); details: 20 min incubation at 22° C., average of multiple determinations if made, read-out: FGFR1 Enz FRET IC50
Sequence of recombinant human FGFR1 catalytic domain (amino acids 308-731) (P11362 other isoform, or with tags, fused parts or gaps): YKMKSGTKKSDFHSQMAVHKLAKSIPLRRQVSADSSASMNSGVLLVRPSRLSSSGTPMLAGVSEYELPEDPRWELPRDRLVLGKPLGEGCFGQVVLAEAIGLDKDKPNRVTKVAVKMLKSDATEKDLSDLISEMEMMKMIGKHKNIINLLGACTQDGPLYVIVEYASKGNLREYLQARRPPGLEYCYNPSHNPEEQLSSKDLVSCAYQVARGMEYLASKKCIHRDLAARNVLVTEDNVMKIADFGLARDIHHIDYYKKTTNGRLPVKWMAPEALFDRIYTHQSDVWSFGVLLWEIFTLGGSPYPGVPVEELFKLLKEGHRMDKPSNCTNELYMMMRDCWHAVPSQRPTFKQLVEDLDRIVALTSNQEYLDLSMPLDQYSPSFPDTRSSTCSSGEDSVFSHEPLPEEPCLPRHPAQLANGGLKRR
Outline: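 His-tagged FGFR1 kinase domain with 100 nM Alexa Fluor 647-poly-GT peptide and ATP in pH 7.5 HEPES/MgCl2 buffer with 2% DMSO, 20 min at 22 °C. Quenched with EDTA plus 2 nM Eu-PY20 antibody and read after 60 min. IC50 comes from a 4-parameter fit of percent of control.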

Sequence of recombinant human FGFR2 cytoplasmic domain (amino acids 403-822) (P21802 402-821): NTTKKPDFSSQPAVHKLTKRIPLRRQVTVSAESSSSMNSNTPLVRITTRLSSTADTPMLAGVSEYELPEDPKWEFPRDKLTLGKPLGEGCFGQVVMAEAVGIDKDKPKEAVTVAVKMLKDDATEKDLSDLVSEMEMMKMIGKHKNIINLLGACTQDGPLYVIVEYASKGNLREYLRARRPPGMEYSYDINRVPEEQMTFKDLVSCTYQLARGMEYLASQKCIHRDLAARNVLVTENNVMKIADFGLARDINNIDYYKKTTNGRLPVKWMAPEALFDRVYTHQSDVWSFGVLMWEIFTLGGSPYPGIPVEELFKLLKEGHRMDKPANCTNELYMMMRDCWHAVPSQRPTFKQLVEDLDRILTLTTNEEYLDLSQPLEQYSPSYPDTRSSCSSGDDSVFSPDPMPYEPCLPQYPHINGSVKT

SMILES | IC50 [1] [nM] | IC50 [2] [nM] | IC50 [3] [nM]
C=CC(=O)N1CC(C(=O)N2CCC(n3cc(-c4cc(OCC(C)C)c5c(C#N)cnn5c4)cn3)CC2)C1 [Example 128, 6-(1-(1-(1-acryloylazetidine-3-carbonyl)piperidin-4-yl)-1H-pyrazol-4-yl)-4-isobutoxypyrazolo[1,5-a]pyridine-3-carbonitrile] | 5 | 3 | 7
C=CC(=O)N1CC(C(=O)N2CCC(n3cc(-c4cc(-c5ccccc5F)c5c(C#N)cnn5c4)cn3)CC2)C1 [Example 131, 6-(1-(1-(1-acryloylazetidine-3-carbonyl)piperidin-4-yl)-1H-pyrazol-4-yl)-4-(2-fluorophenyl)pyrazolo[1,5-a]pyridine-3-carbonitrile] | 10 | 4 | 9
C=CC(=O)N1CC(CN2CCC(n3cc(-c4cc(OC)c5c(C#N)cnn5c4)cn3)CC2)C1 [Example 132, 6-(1-(1-((1-acryloylazetidin-3-yl)methyl)piperidin-4-yl)-1H-pyrazol-4-yl)-4-methoxypyrazolo[1,5-a]pyridine-3-carbonitrile] | 13 | 8 | 14
C=CC(=O)N1CC(S(=O)(=O)N2CCC(n3cc(-c4cc(OC)c5c(C#N)cnn5c4)cn3)CC2)C1 [Example 134, 6-(1-(1-((1-acryloylazetidin-3-yl)sulfonyl)piperidin-4-yl)-1H-pyrazol-4-yl)-4-methoxypyrazolo[1,5-a]pyridine-3-carbonitrile] | 16 | 6 | 5

Second part, the compound after the results:

IC50 [1] [nM] | IC50 [2] [nM] | IC50 [3] [nM] | SMILES
5 | 3 | 7 | C=CC(=O)N1CC(C(=O)N2CCC(n3cc(-c4cc(OC(C)C)c5c(C#N)cnn5c4)cn3)CC2)C1 [Example 127, 6-(1-(1-(1-acryloylazetidine-3-carbonyl)piperidin-4-yl)-1H-pyrazol-4-yl)-4-isopropoxypyrazolo[1,5-a]pyridine-3-carbonitrile]
9 | 6 | 14 | C=CC(=O)N1CC(C(=O)N2CCC(n3cc(-c4cc(C(C)C)c5c(C#N)cnn5c4)cn3)CC2)C1 [Example 129, 6-(1-(1-(1-acryloylazetidine-3-carbonyl)piperidin-4-yl)-1H-pyrazol-4-yl)-4-isopropylpyrazolo[1,5-a]pyridine-3-carbonitrile]
3 | 2 | 3 | C=CC(=O)N1CC(C(=O)N2CCC(n3cc(-c4cc(-c5ccc(NC(=O)C6CC6)cc5F)c5c(C#N)cnn5c4)cn3)CC2)C1 [Example 130, N-(4-(6-(1-(1-(1-acryloylazetidine-3-carbonyl)piperidin-4-yl)-1H-pyrazol-4-yl)-3-cyanopyrazolo[1,5-a]pyridin-4-yl)-3-fluorophenyl)cyclopropane-carboxamide]
3 | 2 | 7 | C#CC(=O)N1CC(C(=O)N2CCC(n3cc(-c4cc(OC)c5c(C#N)cnn5c4)cn3)CC2)C1 [Example 138, 4-methoxy-6-(1-(1-(1-propioloylazetidine-3-carbonyl)piperidin-4-yl)-1H-pyrazol-4-yl)pyrazolo[1,5-a]pyridine-3-carbonitrile]
2 | 2 | 10 | COc1cc(-c2cnn(C3CCN(C(=O)C4CN(C(=O)/C=C/CN(C)C)C4)CC3)c2)cn2ncc(C#N)c12 [Example 143, (E)-6-(1-(1-(1-(4-(dimethylamino)but-2-enoyl)azetidine-3-carbonyl)piperidin-4-yl)-1H-pyrazol-4-yl)-4-methoxypyrazolo [1,5-a]pyridine-3-carbonitrile]
3 | 3 | 4 | COc1cc(-c2cnn(C3CCN(C(=O)C4CN(C(=O)/C=C/CN5CCCCC5)C4)CC3)c2)cn2ncc(C#N)c12 [Example 145, (E)-4-methoxy-6-(1-(1-(1-(4-(piperidin-1-yl)but-2-enoyl)azetidine-3-carbonyl)piperidin-4-yl)-1H-pyrazol-4-yl)pyrazolo[1,5-a]pyridine-3-carbonitrile]
